The results in this text go back to US12603148B2, “Method for analysis of omics data” (Max-Delbrück-Centrum für Molekulare Medizin in der …, priority 2021, dated 2026).

This test deals with patient derived xenografts (PDX) from localized breast cancer tumors. Nature of the test: Drug response of breast cancer patient derived xenografts (complete vs non/incomplete response). The class given is in vivo. The following applies: breast cancer PDX library; AC tested on 37 PDXs, Olaparib on 33 PDXs. On the procedure: A library of 37 patient derived xenografts (PDX) from localized breast cancer tumors were assayed using RNA-seq to determine gene expression profiles and Exome-seq to detect somatic mutations. AC (a combination of the chemotherapies Adriamycin (doxorubicin) and cyclophosphamide) was tested on the 37 PDXs, and 33 were also treated using Olaparib (a PARP inhibitor). The responses of the PDX to the treatments are categorized into Complete Response and non/incomplete response. […] Thus, the complete response to Olaparib results in 28 False and 5 True samples. The complete response to AC results in 26 False and 11 True samples.

Take `O=C(c1cc(Cc2n[nH]c(=O)c3ccccc23)ccc1F)N1CCN(C(=O)C2CC2)CC1` [Olaparib]: the “samples showing a complete response” value was found to be 5 samples and the “samples showing non- or partial responses” value came to 28 samples.
